# Measurements published in BindingDB's records for patent US11306081 (Bristol Myers Squibb, 2022).
# Target: Rho-associated protein kinase 2 (Homo sapiens, UniProt O75116)
# Assay: In Vitro Assay
# Experimental: The effectiveness of compounds of the present invention as ROCK inhibitors can be determined in a 30 μL assay containing 20 mM HEPES, pH 7.5, 20 mM MgCl2, 0.015% Brij-35, 4 mM DTT, 5 μM ATP and 1.5 μM peptide substrate (FITC-AHA-AKRRRLSSLRA-OH) (SEQ ID No. 1). Compounds were dissolved in DMSO so that the final concentration of DMSO was <2%, and the reaction was initiated with Rho kinase variants. After incubation, the reaction was terminated by the addition of EDTA and the phosphorylated and non-phosphorylated peptides separated using a LABCHIP 3000 Reader (Caliper Life Sciences). […] Compounds were tested in dose-response format, and the inhibition of kinase activity was calculated at each concentration of compound. The inhibition data were fit using a curve-fitting program to determine the IC50; i.e., the concentration of compound required to inhibit 50% of kinase activity.
# Rho-associated protein kinase 2, sequence (O75116 whole entry): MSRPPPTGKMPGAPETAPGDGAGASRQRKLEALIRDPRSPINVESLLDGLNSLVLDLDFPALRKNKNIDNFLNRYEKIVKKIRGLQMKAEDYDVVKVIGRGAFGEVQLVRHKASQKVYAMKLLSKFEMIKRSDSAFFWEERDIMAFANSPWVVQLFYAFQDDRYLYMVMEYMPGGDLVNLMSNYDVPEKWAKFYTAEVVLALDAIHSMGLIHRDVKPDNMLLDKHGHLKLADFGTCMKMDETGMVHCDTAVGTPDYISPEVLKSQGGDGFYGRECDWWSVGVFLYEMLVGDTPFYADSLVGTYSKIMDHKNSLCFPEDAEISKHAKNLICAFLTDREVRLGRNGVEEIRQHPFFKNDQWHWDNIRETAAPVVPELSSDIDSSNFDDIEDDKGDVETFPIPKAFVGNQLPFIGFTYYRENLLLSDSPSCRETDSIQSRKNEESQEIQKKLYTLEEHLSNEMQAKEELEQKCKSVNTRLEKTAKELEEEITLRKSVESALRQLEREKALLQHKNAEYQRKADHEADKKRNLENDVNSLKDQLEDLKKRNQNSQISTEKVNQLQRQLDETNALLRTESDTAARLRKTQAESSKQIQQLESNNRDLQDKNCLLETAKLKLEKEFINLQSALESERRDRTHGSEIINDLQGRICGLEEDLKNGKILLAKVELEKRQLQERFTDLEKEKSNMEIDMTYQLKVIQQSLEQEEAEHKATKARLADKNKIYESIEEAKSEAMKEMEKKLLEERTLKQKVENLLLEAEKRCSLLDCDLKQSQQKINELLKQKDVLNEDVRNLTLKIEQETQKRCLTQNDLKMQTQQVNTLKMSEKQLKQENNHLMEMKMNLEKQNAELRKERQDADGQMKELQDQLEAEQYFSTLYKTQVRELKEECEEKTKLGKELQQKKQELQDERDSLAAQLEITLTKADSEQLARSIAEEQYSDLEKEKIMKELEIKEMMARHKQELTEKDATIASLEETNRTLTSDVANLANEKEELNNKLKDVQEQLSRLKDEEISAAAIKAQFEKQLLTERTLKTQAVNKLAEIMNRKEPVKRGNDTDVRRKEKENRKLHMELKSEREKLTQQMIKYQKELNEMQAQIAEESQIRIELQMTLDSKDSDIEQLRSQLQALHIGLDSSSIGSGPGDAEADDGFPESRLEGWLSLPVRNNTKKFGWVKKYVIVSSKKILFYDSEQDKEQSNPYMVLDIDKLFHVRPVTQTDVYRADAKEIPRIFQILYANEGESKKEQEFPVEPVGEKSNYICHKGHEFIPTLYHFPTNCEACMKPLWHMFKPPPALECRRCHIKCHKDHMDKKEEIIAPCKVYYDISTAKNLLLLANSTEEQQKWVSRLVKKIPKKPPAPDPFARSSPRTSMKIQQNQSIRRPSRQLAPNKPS
structure (smiles),measurement,value
"COc1ccc2sc(NC(=O)Cc3ccc(Oc4ncccc4C(N)=O)c(Cl)c3)nc2c1 [US11306081, Example 115]",IC50,8 nM
